Measured values: the supplement of paper PMC11061612

Legend:
[1] = system: NB(TU)1-10 (Neuroblastoma); experiment: Bliss excess, mean over the matrix (fraction); higher = more synergy
In short: (§1)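 Cell lines grown in DMEM/F12 or RPMI with 10% FBS were plated in 1536-well plates and held 24 hours at 37°C, 5% CO2 before 72 hours of exposure to two-drug dose matrices, with DMSO typically at 0.2%. CellTiter-Glo 2.0 luminescence gave viability, which was converted to inhibition. Vehicle wells were set to 0 and blank wells to 1. Combination Emax is the second-highest inhibition in the matrix, and Bliss excess is the observed combination effect minus the expected EA + EB − EA·EB, where EA and EB are the single-agent effects.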

[2] = system: NB(TU)1-10 (Neuroblastoma); experiment: combination Emax (second highest fraction inhibited in the dose matrix, 72 h); higher = more inhibition; extreme values may be limits of the assay
In short: as §1

[3] = system: SW1088 (Low Grade Glioma); experiment: as above
In short: as §1

[4] = system: COR-L95 (Small Cell Lung Carcinoma); experiment: as above
In short: as §1

[5] = system: NCI-H211 (Small Cell Lung Carcinoma); experiment: Bliss excess, mean over the matrix (fraction); higher = more synergy
In short: as §1

[6] = system: NCI-H211 (Small Cell Lung Carcinoma); experiment: combination Emax (second highest fraction inhibited in the dose matrix, 72 h); higher = more inhibition; extreme values may be limits of the assay
In short: as §1
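Throughout, for Bliss excess, mean over the matrix: after 72 h of two-drug dosing.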

| SMILES | Bliss excess [1] | combination Emax [2] | combination Emax [3] | combination Emax [4] | Bliss excess [5] | combination Emax [6] |
| --- | --- | --- | --- | --- | --- | --- |
| CN(C)CCCOc1ccc(-c2ccc3ncc4c(c3c2)n(C2CCOCC2)c(=O)n4C)cn1 [AZD0156] + CCN(CCO)CCCOc1ccc2c(Nc3cc(CC(=O)Nc4cccc(F)c4)[nH]n3)ncnc2c1 [AZD2811] (first compound max 1 µM, 7x7, partner max 1 µM) | -0.0294 | 0.292 | 0.364 | 0.208 | – | – |
| Cc1cc2ncnn2cc1Nc1ncc2c(n1)n(C1CCOCC1)c(=O)n2C [AZD7648] + C[C@@H]1COCCN1C2=NC(=NC(=C2)C3(CC3)[S@](=N)(=O)C)C4=C5C=CNC5=NC=C4 [AZD6738] (first compound max 10 µM, 7x7, partner max 10 µM) | -0.0214 | 0.713 | 0.671 | 0.621 | – | – |
| COc1nnc2ccc(N3CCC(c4ccc(OCCN5CCN(C)C(=O)[C@H]5C)cc4)CC3)nn12 [AZD5153] + C[C@@H]1COCCN1C2=NC(=NC(=C2)C3(CC3)[S@](=N)(=O)C)C4=C5C=CNC5=NC=C4 [AZD6738] (first compound max 1 µM, 7x7, partner max 10 µM) | – | – | 0.645 | 0.547 | -0.008 | 1 |
| NC1(C(=O)N[C@@H](CCO)c2ccc(Cl)cc2)CCN(c2ncnc3[nH]ccc23)CC1 [Capivasertib] + CC(C)n1c(=O)n(C)c2cnc3cc(F)c(-c4ccc(OCCCN5CCCCC5)nc4)cc3c21 [AZD1390] (first compound max 10 µM, 7x7, partner max 0.3 µM) | – | – | 0.624 | 0.164 | -0.0294 | 0.488 |
| C[C@@H](c1ccc2nccn2c1)n1nnc2ncc(-c3cnn(C)c3)nc21 [Savolitinib] + CC1(C)CCC(CN2CCN(c3ccc(C(=O)NS(=O)(=O)c4ccc(NCC5CCOCC5)c([N+](=O)[O-])c4)c(Oc4cnc5[nH]ccc5c4)c3)CC2)=C(c2ccc(Cl)cc2)C1 [Venetoclax] (first compound max 1 µM, 7x7, partner max 1 µM) | – | – | 0.224 | 0.586 | 0.0317 | 0.744 |
| Cn1cnc2c(F)c(Nc3ccc(Br)cc3Cl)c(C(=O)NOCCO)cc21 [Selumetinib] + CCN(CCO)CCCOc1ccc2c(Nc3cc(CC(=O)Nc4cccc(F)c4)[nH]n3)ncnc2c1 [AZD2811] (first compound max 10 µM, 7x7, partner max 1 µM) | – | – | 0.424 | 0.21 | -0.0446 | 0.938 |
| Cn1cnc2c(F)c(Nc3ccc(Br)cc3Cl)c(C(=O)NOCCO)cc21 [Selumetinib] + C[C@@H]1COCCN1C2=NC(=NC(=C2)C3(CC3)[S@](=N)(=O)C)C4=C5C=CNC5=NC=C4 [AZD6738] (first compound max 10 µM, 7x7, partner max 10 µM) | – | – | 0.65 | 0.535 | -0.0285 | 0.606 |
| NC1(C(=O)N[C@@H](CCO)c2ccc(Cl)cc2)CCN(c2ncnc3[nH]ccc23)CC1 [Capivasertib] + CC(=O)c1c(C)c2cnc(Nc3ccc(N4CCNCC4)cn3)nc2n(C2CCCC2)c1=O [Palbociclib] (first compound max 10 µM, 7x7, partner max 10 µM) | – | – | 0.654 | 0.172 | 0.0926 | 0.59 |
| C[C@@H](c1ccc2nccn2c1)n1nnc2ncc(-c3cnn(C)c3)nc21 [Savolitinib] + Cc1c2c(nn1C)CSCc1cc(n(C)n1)CSc1cc(c3ccccc3c1)OCCCc1c(C(=O)O)n(C)c3c-2c(Cl)ccc13 [AZD5991] (first compound max 1 µM, 7x7, partner max 1 µM) | – | – | 0.261 | 0.163 | 0.033 | 0.859 |
| NC1(C(=O)N[C@@H](CCO)c2ccc(Cl)cc2)CCN(c2ncnc3[nH]ccc23)CC1 [Capivasertib] + C[C@@H]1COCCN1C2=NC(=NC(=C2)C3(CC3)[S@](=N)(=O)C)C4=C5C=CNC5=NC=C4 [AZD6738] (first compound max 10 µM, 7x7, partner max 10 µM) | – | – | 0.707 | 0.542 | 0.0232 | 0.665 |
| NC1(C(=O)N[C@@H](CCO)c2ccc(Cl)cc2)CCN(c2ncnc3[nH]ccc23)CC1 [Capivasertib] + Cn1cnc2c(F)c(Nc3ccc(Br)cc3Cl)c(C(=O)NOCCO)cc21 [Selumetinib] (first compound max 10 µM, 7x7, partner max 10 µM) | – | – | 0.618 | 0.22 | 0.119 | 0.568 |
| NC1(C(=O)N[C@@H](CCO)c2ccc(Cl)cc2)CCN(c2ncnc3[nH]ccc23)CC1 [Capivasertib] + CCN(CCO)CCCOc1ccc2c(Nc3cc(CC(=O)Nc4cccc(F)c4)[nH]n3)ncnc2c1 [AZD2811] (first compound max 10 µM, 7x7, partner max 1 µM) | – | – | 0.642 | 0.172 | -0.0107 | 0.944 |
| COc1nnc2ccc(N3CCC(c4ccc(OCCN5CCN(C)C(=O)[C@H]5C)cc4)CC3)nn12 [AZD5153] + Cn1cnc2c(F)c(Nc3ccc(Br)cc3Cl)c(C(=O)NOCCO)cc21 [Selumetinib] (first compound max 1 µM, 7x7, partner max 10 µM) | – | – | 0.513 | 0.218 | 0.0477 | 1 |
| COc1nnc2ccc(N3CCC(c4ccc(OCCN5CCN(C)C(=O)[C@H]5C)cc4)CC3)nn12 [AZD5153] + Cc1c2c(nn1C)CSCc1cc(n(C)n1)CSc1cc(c3ccccc3c1)OCCCc1c(C(=O)O)n(C)c3c-2c(Cl)ccc13 [AZD5991] (first compound max 1 µM, 7x7, partner max 1 µM) | – | – | 0.487 | 0.371 | -0.0175 | 1 |
| CC(=O)c1c(C)c2cnc(Nc3ccc(N4CCNCC4)cn3)nc2n(C2CCCC2)c1=O [Palbociclib] + CC1(C)CCC(CN2CCN(c3ccc(C(=O)NS(=O)(=O)c4ccc(NCC5CCOCC5)c([N+](=O)[O-])c4)c(Oc4cnc5[nH]ccc5c4)c3)CC2)=C(c2ccc(Cl)cc2)C1 [Venetoclax] (first compound max 10 µM, 7x7, partner max 1 µM) | – | – | 0.429 | 0.709 | 0.0694 | 0.965 |
| Cc1nc(Nc2ncc(C(=O)Nc3c(C)cccc3Cl)s2)cc(N2CCN(CCO)CC2)n1 [Dasatinib] + CC(=O)Nc1cccc(-n2c(=O)n(C3CC3)c(=O)c3c(Nc4ccc(I)cc4F)n(C)c(=O)c(C)c32)c1 [Trametinib] (first compound max 2 µM, 7x7, partner max 1 µM) | – | – | 0.666 | 0.128 | 0.0556 | 0.456 |
| NC1(C(=O)N[C@@H](CCO)c2ccc(Cl)cc2)CCN(c2ncnc3[nH]ccc23)CC1 [Capivasertib] + COc1nnc2ccc(N3CCC(c4ccc(OCCN5CCN(C)C(=O)[C@H]5C)cc4)CC3)nn12 [AZD5153] (first compound max 10 µM, 7x7, partner max 1 µM) | – | – | 0.638 | 0.399 | -0.0113 | 1 |
| COc1nnc2ccc(N3CCC(c4ccc(OCCN5CCN(C)C(=O)[C@H]5C)cc4)CC3)nn12 [AZD5153] + C=CCn1c(=O)c2cnc(Nc3ccc(N4CCN(C)CC4)cc3)nc2n1-c1cccc(C(C)(C)O)n1 [AZD1775] (first compound max 1 µM, partner max 1 µM) | – | – | 0.513 | 0.433 | -0.0008 | 0.993 |
| Cn1cnc2c(F)c(Nc3ccc(Br)cc3Cl)c(C(=O)NOCCO)cc21 [Selumetinib] + C=CCn1c(=O)c2cnc(Nc3ccc(N4CCN(C)CC4)cc3)nc2n1-c1cccc(C(C)(C)O)n1 [AZD1775] (first compound max 10 µM, partner max 1 µM) | – | – | 0.55 | 0.32 | 0.0248 | 0.831 |
| CC(=O)c1c(C)c2cnc(Nc3ccc(N4CCNCC4)cn3)nc2n(C2CCCC2)c1=O [Palbociclib] + Cn1cnc2c(F)c(Nc3ccc(Br)cc3Cl)c(C(=O)NOCCO)cc21 [Selumetinib] (first compound max 10 µM, 7x7, partner max 10 µM) | – | – | 0.358 | 0.283 | 0.0861 | 0.657 |
| CC(=O)c1c(C)c2cnc(Nc3ccc(N4CCNCC4)cn3)nc2n(C2CCCC2)c1=O [Palbociclib] + Cc1c2c(nn1C)CSCc1cc(n(C)n1)CSc1cc(c3ccccc3c1)OCCCc1c(C(=O)O)n(C)c3c-2c(Cl)ccc13 [AZD5991] (first compound max 10 µM, 7x7, partner max 1 µM) | – | – | 0.364 | 0.196 | 0.118 | 0.905 |
| COc1nnc2ccc(N3CCC(c4ccc(OCCN5CCN(C)C(=O)[C@H]5C)cc4)CC3)nn12 [AZD5153] + CC1(C)CCC(CN2CCN(c3ccc(C(=O)NS(=O)(=O)c4ccc(NCC5CCOCC5)c([N+](=O)[O-])c4)c(Oc4cnc5[nH]ccc5c4)c3)CC2)=C(c2ccc(Cl)cc2)C1 [Venetoclax] (first compound max 1 µM, 7x7, partner max 1 µM) | – | – | 0.471 | 0.802 | 0.03 | 1 |
| CS(=O)(=O)CCNCc1ccc(-c2ccc3ncnc(Nc4ccc(OCc5cccc(F)c5)c(Cl)c4)c3c2)o1 [Lapatinib] + C[C@@H](Oc1cc(-c2cnn(C3CCNCC3)c2)cnc1N)c1c(Cl)ccc(F)c1Cl [Crizotinib] (first compound max 10 µM, 7x7, partner max 10 µM) | – | – | 0.654 | 0.812 | -0.0329 | 0.948 |
| COc1nnc2ccc(N3CCC(c4ccc(OCCN5CCN(C)C(=O)[C@H]5C)cc4)CC3)nn12 [AZD5153] + CCN(CCO)CCCOc1ccc2c(Nc3cc(CC(=O)Nc4cccc(F)c4)[nH]n3)ncnc2c1 [AZD2811] (first compound max 1 µM, 7x7, partner max 1 µM) | – | – | 0.519 | 0.308 | -0.0081 | 1 |
| COc1cc2ncnc(Nc3ccc(F)c(Cl)c3)c2cc1OCCCN1CCOCC1 [Gefitinib] + CC(C)n1c(=O)n(C)c2cnc3cc(F)c(-c4ccc(OCCCN5CCCCC5)nc4)cc3c21 [AZD1390] (first compound max 10 µM, 7x7, partner max 0.3 µM) | – | – | 0.108 | 0.261 | -0.053 | 0.227 |
| Cn1cnc2c(F)c(Nc3ccc(Br)cc3Cl)c(C(=O)NOCCO)cc21 [Selumetinib] + CC(C)n1c(=O)n(C)c2cnc3cc(F)c(-c4ccc(OCCCN5CCCCC5)nc4)cc3c21 [AZD1390] (first compound max 10 µM, 7x7, partner max 0.3 µM) | – | – | 0.14 | 0.18 | -0.0015 | 0.239 |
